Read-outs that look alike come from different tables or passages of the source.
Tested on: iCell cardiomyocytes (human iPSC-derived cardiomyocytes)
Assay: High-content imaging of cytotoxicity and mitochondrial integrity in iPSC-CMs
Type: cell-based
Conditions: Homo sapiens; for viability at 0.01 µM / activity at 0.01 µM / viability at 0.1 µM / activity at 0.1 µM / viability at 1 µM / activity at 1 µM / viability at 10 µM / activity at 10 µM / viability at 100 µM / activity at 100 µM: Cardiomyocyte, 0.00 µM = 100.00; for viability at 0.1 µM / activity at 0.1 µM: 0.10 µM; for minimal effective concentration: iPSC-CM
Procedure, shortened: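 This assay measured cytotoxicity and mitochondrial integrity in iPSC cardiomyocytes held in 40μL maintenance medium. After compound exposure, a 2× staining solution with Hoechst 33342 (4μg/mL) and MitoTracker™ Orange (0.4μM) was applied for 15 min at 37°C. Cells were washed, fixed with 3.7% formaldehyde, imaged on DAPI and Cy3 channels, and scored in MetaXpress®.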

Oc1cc(Cl)cc(-c2cccc(Cl)c2)c1 [5-OH PCB 11]
viability at 0.01 µM (1.5 h, read-out: cm.cam.90min): 91%
activity at 0.01 µM (1.5 h, read-out: cm.mii.90min): 117%
activity at 0.01 µM (1.5 h, read-out: cm.mito.90min): 90.7%
viability at 0.01 µM (1.5 h, read-out: cm.tc.90min): 91.1%
viability at 0.1 µM (1.5 h, read-out: cm.cam.90min): 96.6%
activity at 0.1 µM (1.5 h, read-out: cm.mii.90min): 96.6%
activity at 0.1 µM (1.5 h, read-out: cm.mito.90min): 96.4%
viability at 0.1 µM (1.5 h, read-out: cm.tc.90min): 96.5%
viability at 1 µM (1.5 h, read-out: cm.cam.90min): 99%
activity at 1 µM (1.5 h, read-out: cm.mii.90min): 90.6%
activity at 1 µM (1.5 h, read-out: cm.mito.90min): 99%
viability at 1 µM (1.5 h, read-out: cm.tc.90min): 99%
viability at 10 µM (1.5 h, read-out: cm.cam.90min): 98.4%
activity at 10 µM (1.5 h, read-out: cm.mii.90min): 108%
activity at 10 µM (1.5 h, read-out: cm.mito.90min): 98%
viability at 10 µM (1.5 h, read-out: cm.tc.90min): 98%
viability at 100 µM (1.5 h, read-out: cm.cam.90min): 0%
activity at 100 µM (1.5 h, read-out: cm.mii.90min): 69.7%
activity at 100 µM (1.5 h, read-out: cm.mito.90min): 0.0231%
viability at 100 µM (1.5 h, read-out: cm.tc.90min): 0.0231%
viability at 0.01 µM (24 h, read-out: cm.cam.24hrs): 99%
activity at 0.01 µM (24 h, read-out: cm.mii.24hrs): 95.3%
activity at 0.01 µM (24 h, read-out: cm.mito.24hrs): 97%
viability at 0.01 µM (24 h, read-out: cm.tc.24hrs): 99.8%
viability at 0.1 µM (24 h, read-out: cm.cam.24hrs): 101%
activity at 0.1 µM (24 h, read-out: cm.mii.24hrs): 93.9%
activity at 0.1 µM (24 h, read-out: cm.mito.24hrs): 100%
viability at 0.1 µM (24 h, read-out: cm.tc.24hrs): 101%
viability at 1 µM (24 h, read-out: cm.cam.24hrs): 99.8%
activity at 1 µM (24 h, read-out: cm.mii.24hrs): 100%
activity at 1 µM (24 h, read-out: cm.mito.24hrs): 97.8%
viability at 1 µM (24 h, read-out: cm.tc.24hrs): 99.8%
viability at 10 µM (24 h, read-out: cm.cam.24hrs): 98.2%
activity at 10 µM (24 h, read-out: cm.mii.24hrs): 81.6%
activity at 10 µM (24 h, read-out: cm.mito.24hrs): 98.7%
viability at 10 µM (24 h, read-out: cm.tc.24hrs): 97.8%
viability at 100 µM (24 h, read-out: cm.cam.24hrs): 0.0236%
activity at 100 µM (24 h, read-out: cm.mii.24hrs): 0%
activity at 100 µM (24 h, read-out: cm.mito.24hrs): 0%
viability at 100 µM (24 h, read-out: cm.tc.24hrs): 0.0229%
minimal effective concentration (1.5 h, read-out: cm.cam.90min POD): 16.2 µM
minimal effective concentration (1.5 h, read-out: cm.mii.90min POD): 34.1 µM
minimal effective concentration (1.5 h, read-out: cm.mito.90min POD): 13.8 µM
minimal effective concentration (1.5 h, read-out: cm.tc.90min POD): 14 µM
minimal effective concentration (24 h, read-out: cm.cam.24hrs POD): 13.8 µM
minimal effective concentration (24 h, read-out: cm.mii.24hrs POD): 8.43 µM
minimal effective concentration (24 h, read-out: cm.mito.24hrs POD): 14.6 µM
minimal effective concentration (24 h, read-out: cm.tc.24hrs POD): 10.7 µM

From article PMC7377239, “Cardiovascular Effects of Polychlorinated Biphenyls and Their Major Metabolites” (Environmental Health Perspectives, 2020)
